Several values for one entry are separate records, joined by “and”; a condition that tells them apart may be missing. Equal values may be shown once. Inconclusive results and toxic doses are left out. Where a SMILES comes first, the peptide text is derived from it. [ ]: non-standard residue; d: D form. The star is where a group is joined. Cbz = O=C(OCc1ccccc1)*; Nva = CCC[CH](N)C(=O)O
Tested on: B6C3F1 mice, B16 melanoma ip, median survival T/C
Experiment: NCI In Vivo Anticancer Drug Screen. Data for tumor model B16 Melanoma (intraperitoneal) in B6C3F1 mice
Details: endpoint: median survival time, schedule: Q01DX009 (ip), higher = longer survival
Experimental: The antitumor activity of compounds was measured in mice bearing transplantable tumors. Survival or tumor size were measured and the results are expressed as the measurement made in the treated group (T) divided by the measurement made in the vehicle treated control group (C). The tumor model used in this assay is B16 Melanoma (intraperitoneal) in B6C3F1 mice

[1] = dose: 100.0 mg/kg/injection, vehicle: saline with Tween-80
[2] = dose: 200.0 mg/kg/injection, vehicle: saline with Tween-80
[3] = dose: 0.78 mg/kg/injection, vehicle: Klucel (hydroxypropylcellulose) (HPC)
[4] = dose: 1.56 mg/kg/injection, vehicle: Klucel (hydroxypropylcellulose) (HPC)
[5] = dose: 3.12 mg/kg/injection, vehicle: Klucel (hydroxypropylcellulose) (HPC)
[6] = dose: 6.25 mg/kg/injection, vehicle: Klucel (hydroxypropylcellulose) (HPC)
[7] = dose: 12.5 mg/kg/injection, vehicle: Klucel (hydroxypropylcellulose) (HPC)
[8] = dose: 25.0 mg/kg/injection, vehicle: Klucel (hydroxypropylcellulose) (HPC)
[9] = dose: 3.0 mg/kg/injection, vehicle: saline
[10] = dose: 100.0 mg/kg/injection, vehicle: Klucel (hydroxypropylcellulose) (HPC)
[11] = dose: 200.0 mg/kg/injection, vehicle: Klucel (hydroxypropylcellulose) (HPC)
[12] = dose: 400.0 mg/kg/injection, vehicle: Klucel (hydroxypropylcellulose) (HPC)
[13] = dose: 100.0 mg/kg/injection, vehicle: saline

## C[C@H](N)C(=O)N[C@@H]1[C@H]2C(=C(O)C[C@@H](O)[C@@H]2O)C(=O)O[C@]1(C)C(Cl)Cl
dose: 0.18 mg/kg/injection, vehicle: Klucel (hydroxypropylcellulose) (HPC)
  T/C: 95 % of control
dose: 0.19 mg/kg/injection, vehicle: Klucel (hydroxypropylcellulose) (HPC)
  T/C: 100 % of control
dose: 0.37 mg/kg/injection, vehicle: Klucel (hydroxypropylcellulose) (HPC)
  T/C: 101 % of control and 107 % of control
dose: 0.38 mg/kg/injection, vehicle: Klucel (hydroxypropylcellulose) (HPC)
  T/C: 105 % of control
dose: 0.75 mg/kg/injection, vehicle: Klucel (hydroxypropylcellulose) (HPC)
  T/C: 116 % of control and 104 % of control (2×)
dose: 1.5 mg/kg/injection, vehicle: Klucel (hydroxypropylcellulose) (HPC)
  T/C: 112 % of control and 113 % of control and 118 % of control

## Nc1nc(Cl)c2ncn(C3OC(CO)C(O)C3O)c2n1 (centres undefined)
[1]
  T/C: 98 % of control
[2]
  T/C: 100 % of control
dose: 400.0 mg/kg/injection, vehicle: saline with Tween-80
  T/C: 101 % of control

## CN(C)CCNc1ccc(CO)c2sc3ccc(O)cc3c(=O)c12
dose: 18.0 mg/kg/injection, vehicle: saline with Tween-80
  T/C: 327 % of control
dose: 30.0 mg/kg/injection, vehicle: saline with Tween-80
  T/C: 218 % of control
dose: 50.0 mg/kg/injection, vehicle: saline with Tween-80
  T/C: 295 % of control
dose: 83.33 mg/kg/injection, vehicle: saline with Tween-80
  T/C: 327 % of control

## C=C1C(=O)OC2/C=C(\CO)C(OC(C)=O)CC(O)/C(C)=C/C(OC(=O)C(C)CC)C12 (centres undefined)
dose: 0.2 mg/kg/injection, vehicle: Klucel (hydroxypropylcellulose) (HPC)
  T/C: 96 % of control
dose: 0.39 mg/kg/injection, vehicle: Klucel (hydroxypropylcellulose) (HPC)
  T/C: 103 % of control
[3]
  T/C: 89 % of control and 103 % of control
[4]
  T/C: 110 % of control and 100 % of control

## O=NN(CCCl)C(=O)Oc1cc(Cl)c(Cl)cc1Cl
[5]
  T/C: 99 % of control
[6]
  T/C: 99 % of control
[7]
  T/C: 188 % of control
[8]
  T/C: 169 % of control and 205 % of control

## [Cl][Pt+2][Cl].[NH-]C1CCC1.[NH2-]
dose: 0.75 mg/kg/injection, vehicle: saline
  T/C: 151 % of control
[9]
  T/C: 205 % of control

## CCCC(NC(=O)OCc1ccccc1)C(=O)NC(Cc1ccccc1)C(=O)O (centres undefined) (Cbz-[Nva]-Phe-OH; configuration not given here)
[10]
  T/C: 101 % of control
[11]
  T/C: 104 % of control
[12]
  T/C: 89 % of control

## C/C(=N\NC(=O)c1ccccc1O)c1cccc(/C(C)=N/NC(=O)c2ccccc2O)n1
[9]
  T/C: 102 % of control
dose: 6.0 mg/kg/injection, vehicle: saline
  T/C: 96 % of control

## CCCn1cc2c3c(cccc31)C1C=C(C)CN(C)C1C2 (centres undefined)
dose: 6.25 mg/kg/injection, vehicle: other
  T/C: 118 % of control
dose: 12.5 mg/kg/injection, vehicle: other
  T/C: 306 % of control
dose: 25.0 mg/kg/injection, vehicle: other
  T/C: 91 % of control

## CCCC(=O)OCC1OC(n2cnc3c(=S)nc(N)[nH]c32)C(OC(=O)CCC)C1OC(=O)CCC (centres undefined)
[3]
  T/C: 103 % of control
[4]
  T/C: 104 % of control
[5]
  T/C: 110 % of control
[6]
  T/C: 114 % of control

## c1ccc(-c2nn(-c3ccccc3)[n+](-c3ccccc3-c3ccccc3)n2)cc1
dose: 5.0 mg/kg/injection, vehicle: saline
  T/C: 108 % of control
dose: 10.0 mg/kg/injection, vehicle: saline
  T/C: 99 % of control
dose: 20.0 mg/kg/injection, vehicle: saline
  T/C: 101 % of control

## Cc1ccccc1N=C(c1ccccc1)C1C(=O)c2ccccc2C1=O
dose: 50.0 mg/kg/injection, vehicle: DMSO
  T/C: 101 % of control
dose: 100.0 mg/kg/injection, vehicle: DMSO
  T/C: 106 % of control
dose: 200.0 mg/kg/injection, vehicle: DMSO
  T/C: 116 % of control
dose: 400.0 mg/kg/injection, vehicle: DMSO
  T/C: 108 % of control
dose: 800.0 mg/kg/injection, vehicle: DMSO
  T/C: 101 % of control

## CCC(C)C(NC(=O)OCc1ccccc1)C(=O)NC(C(=O)O)C(C)C (stereo not drawn) (Cbz-Ile-Val-OH; configuration not given here)
[10]
  T/C: 91 % of control
[11]
  T/C: 94 % of control
[12]
  T/C: 94 % of control

## Cn1cc(NC(=O)c2cc(NC(=O)c3cc(NC=O)cn3C)cn2C)cc1C(=O)NCCC(=N)N
dose: 6.25 mg/kg/injection, vehicle: water
  T/C: 99 % of control and 101 % of control and 105 % of control

## CCN(CC)CCCNc1nccc2c(C)c3[nH]c4ccncc4c3cc12
dose: 0.38 mg/kg/injection, vehicle: other
  T/C: 176 % of control
dose: 0.75 mg/kg/injection, vehicle: other
  T/C: 170 % of control
dose: 1.5 mg/kg/injection, vehicle: other
  T/C: 180 % of control
dose: 3.0 mg/kg/injection, vehicle: other
  T/C: 202 % of control
dose: 6.0 mg/kg/injection, vehicle: other
  T/C: 257 % of control

## Cn1nnc2c(C(N)=O)ncn2c1=O
dose: 12.5 mg/kg/injection, vehicle: suspension in saline
  T/C: 113 % of control
dose: 50.0 mg/kg/injection, vehicle: suspension in saline
  T/C: 167 % of control
[13]
  T/C: 181 % of control
dose: 100.0 mg/kg/injection, vehicle: suspension in saline
  T/C: 206 % of control

## Nc1ccc(Cn2ccc3c4c(N)nc(N)nc4ccc32)cc1
dose: 1.25 mg/kg/injection, vehicle: saline with Tween-80
  T/C: 95 % of control and 100 % of control
dose: 2.5 mg/kg/injection, vehicle: saline with Tween-80
  T/C: 110 % of control and 99 % of control
dose: 5.0 mg/kg/injection, vehicle: saline with Tween-80
  T/C: 99 % of control and 105 % of control
dose: 10.0 mg/kg/injection, vehicle: saline with Tween-80
  T/C: 111 % of control and 119 % of control

## Clc1ncnc2c1ncn2C1CCCO1 (centres undefined)
dose: 25.0 mg/kg/injection, vehicle: saline
  T/C: 93 % of control
dose: 50.0 mg/kg/injection, vehicle: saline
  T/C: 99 % of control
[13]
  T/C: 88 % of control and 94 % of control

## Nc1nc(N)c2c(ccc3c2ccn3Cc2cccc([N+](=O)[O-])c2)n1
dose: 0.19 mg/kg/injection, vehicle: saline with Tween-80
  T/C: 107 % of control
dose: 0.2 mg/kg/injection, vehicle: saline with Tween-80
  T/C: 102 % of control
dose: 0.38 mg/kg/injection, vehicle: saline with Tween-80
  T/C: 98 % of control
dose: 0.4 mg/kg/injection, vehicle: saline with Tween-80
  T/C: 101 % of control
dose: 0.75 mg/kg/injection, vehicle: saline with Tween-80
  T/C: 116 % of control
dose: 0.78 mg/kg/injection, vehicle: saline with Tween-80
  T/C: 103 % of control
dose: 1.5 mg/kg/injection, vehicle: saline with Tween-80
  T/C: 93 % of control and 100 % of control
dose: 1.56 mg/kg/injection, vehicle: saline with Tween-80
  T/C: 99 % of control
dose: 3.0 mg/kg/injection, vehicle: saline with Tween-80
  T/C: 112 % of control and 103 % of control
dose: 6.0 mg/kg/injection, vehicle: saline with Tween-80
  T/C: 108 % of control and 116 % of control

## COc1cccc(/C=C/[N+](=O)[O-])c1OC
[5]
  T/C: 100 % of control
[6]
  T/C: 98 % of control
[7]
  T/C: 94 % of control
[8]
  T/C: 96 % of control

## O=C1C(Cl)=C(Cl)C(=O)C2=C1C1c3ccccc3C2c2ccccc21
[1]
  T/C: 94 % of control
[2]
  T/C: 86 % of control

— PubChem BioAssay AID200 (DTP/NCI, 2004)
